Experimental data taken from patent US7276536B2, “Method for increasing the bioavailability of the active form of S-[2-([[1-(2-ethylbutyl)cyclohexyl]carbonyl]amino) phenyl] 2-methylpropanethioate” (Japan Tobacco Inc., priority 2003, dated 2007).

Legend:
[1] = target: T1, cholesteryl ester transfer protein (CETP) (Homo sapiens, UniProt P11597); experiment: CETP activity change from baseline after 900 mg oral Compound I, fed vs fasted (Example 2); format: in vivo, human (Caucasian male patients); conditions: mean
T1 construct: from tissue; host or cells: samples from dosed male patients (CETP is described as a plasma protein)
T1 sequence (P11597 18-493): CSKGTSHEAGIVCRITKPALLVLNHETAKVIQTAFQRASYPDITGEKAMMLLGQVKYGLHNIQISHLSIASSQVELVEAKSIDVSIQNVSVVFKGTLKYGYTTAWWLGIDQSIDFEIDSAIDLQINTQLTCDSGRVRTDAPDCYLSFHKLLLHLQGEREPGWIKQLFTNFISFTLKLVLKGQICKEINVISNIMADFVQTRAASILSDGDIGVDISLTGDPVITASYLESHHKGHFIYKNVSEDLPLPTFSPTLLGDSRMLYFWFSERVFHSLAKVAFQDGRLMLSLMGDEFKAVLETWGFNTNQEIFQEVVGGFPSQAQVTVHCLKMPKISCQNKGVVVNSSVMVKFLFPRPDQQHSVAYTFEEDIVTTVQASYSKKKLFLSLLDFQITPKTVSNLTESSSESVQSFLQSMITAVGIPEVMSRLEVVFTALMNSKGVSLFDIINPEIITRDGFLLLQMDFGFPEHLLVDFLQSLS
Experimental: Administration, dosing, and sampling schedules were substantially similar to those described in Example 1.
The procedure for determining CETP activity was substantially similar to the procedures described in Tollefson et al., Methods Enzymol., 129, 797-816 (1986), and Kato et al., J. Biol. Chem., 264, 4082-4087 (1989).
CETP activity and changes from baseline (pre-dose) were measured, and the resulting data is summarized in Table 2 as percentage change from baseline. The mean changes from baseline (pre-dose) in CETP activity over time are set out in the plot of FIG. 3.

[2] = Food-effect pharmacokinetic study, 600 mg oral Compound I, fed vs fasted (Example 4); format: in vivo, human (Japanese male volunteers)
Experimental: Administration, dosing, and sampling schedules were commensurate with those described in Example 1. […] Patients were administered two tablets of 300 mg each. The tablets were prepared as described in Example 1.

With `CCC(CC)CC1(C(=O)Nc2ccccc2SC(=O)C(C)C)CCCCC1` [Compound I, S-[2-([[1-(2-ethylbutyl)cyclohexyl]carbonyl]amino)phenyl]2-methylpropanethioate] the “Percent change from pre-dose in CETP activity” value (from here on “Percent change from pre-dose”) ([1]; Fasted, 1 h) was 1%, the “Percent change from pre-dose” value ([1]; Fasted, 2 h) was 2% and the “Percent change from pre-dose” value ([1]; Fasted, 4 h) was −4%. The “Percent change from pre-dose” value ([1]; Fasted, 6 h) was −10%, the “Percent change from pre-dose” value ([1]; Fasted, 8 h) was −15% and the “Percent change from pre-dose” value ([1]; Fasted, 24 h) was −10%. For the same compound, the “Percent change from pre-dose” value ([1]; Fed, 1 h) was −1%, the “Percent change from pre-dose” value ([1]; Fed, 2 h) was −16% and the “Percent change from pre-dose” value ([1]; Fed, 4 h) was −44%. The “Percent change from pre-dose” value ([1]; Fed, 6 h) was −59%, the “Percent change from pre-dose” value ([1]; Fed, 8 h) was −58% and the “Percent change from pre-dose” value ([1]; Fed, 24 h) was −34%. The “AUC0-∞ times higher with food as compared to without food” value [2] was about 2 times.
